From patent publication US20230108050A1, “CXCL8 (INTERLEUKIN-8) ACTIVITY INHIBITOR AND CORTICOSTEROID COMBINATION AND PHARMACEUTICAL COMPOSITION AND USE THEREOF” (Dompe' farmaceutici SpA, priority 2020, published 2023) come the findings set out here.

Assay type in all cases: in vivo, BALB/c mice
For assay [1], the system named is Th17 glucocorticoid-insensitive asthma mouse model. As to the kind of experiment: Cytokines quantification in lung tissue (ELISA), Example 1b. Conditions: ladarixin 10 mg/Kg oral, dexamethasone 5 mg/Kg s.c., lung lysate ELISA. How it is done:
(§1) The investigation was conducted by using a Th17 glucocorticoid-insensitive asthma mouse model previously described (Campa C C et al., Nat Commun (2018), v. 9, p. 5232 and Dejager Let al., Mucosal Immunol (2015), v. 8, p 1212-25).
(§2) In details, BALB/c mice received systemic immunization by subcutaneous injection of 20 μg of chicken egg ovalbumin (OVA grade V, >98% pure; Sigma, St Louis, Mo.) in saline, emulsified in 75 μL CFA (Sigma-Aldrich) at day 0.
(§3) From day 28 after first immunization to day 31, mice were treated with PBS (vehicle), ladarixin, dexamethasone or ladarixin/dexamethasone as described below, and 60 minutes later exposed to aerosolized ovalbumin (1% in saline) for 20 minutes per day. Ladarixin was administered orally by gavage (10 mg/Kg in saline 0.9%), as previously described (Bertini et al., Br J Pharmacol (2012), v. 165, p. 436-54), once a day. Dexamethasone was administered subcutaneously (5 mg/Kg in saline), once a day.
The levels of IL17A and TNF-α were also measured in the different experimental mice groups. […] Levels of IL-17A and TNF-α were measured by ELISA using commercial DuoSet kits from R&D Systems, according to the instructions of the manufacturer. Results, shown in FIG. 2, are expressed as pg of cytokines per ml of lung lysate (pg/ml).
In general terms: In an ELISA, binding on a coated surface is turned into a signal by an enzyme label.

For assay [2] the test system is unchanged. The assay is described as follows: Neutrophil peroxidase activity (MPO) in lung tissue, Example 1c. The conditions noted are these: ladarixin 10 mg/Kg oral, dexamethasone 5 mg/Kg s.c.; after OVA exposure; FIG. 4A.
Protocol: MPO assay was performed on the lung tissue in the different experimental mice groups. In details, MPO assay was performed in a 96-well microplate by adding, in each well, 25 μL of 3,3′-5,5′-tetramethylbenzidine (TMB Sigma) diluted in dimethyl sulfoxide (DMSO; Merck, Darmstadt, Germany) at a final concentration of 1.6 mM; 100 μL of H2O2 0.02% vol/vol in PBS (pH 5.4) containing HTAB and 25 μL of processed tissue supernatant. The reaction started, at 37° C., by adding the TMB solution and the supernatant to the microplate and, after 5 min, H2O2 was added followed by a new incubation at 37° C. for 5 min. The reaction was stopped by adding 100 μL of H2SO4 1M and quantified at 450 nm wavelengths in a spectrophotometer (VERSA max, Molecular Devices, CA).
For assay [3] the test system is unchanged. As to the kind of experiment: Assessment of pulmonary mechanics, Example 1e. The conditions noted are these: ladarixin 10 mg/Kg oral, dexamethasone 5 mg/Kg s.c.; FIG. 5B. The protocol:
as §1, §2, §3
Mice form different experimental groups were anesthetized with a subcutaneous injection of ketamine and xylazine (130 mg/Kg ketamine and 8.5 mg/Kg xylazine) to maintain spontaneous breathing under anesthesia. […] Under mechanical respiration the Dynamic Compliance (Cdyn) and Lung Resistance (RI) were determined by Resistance and Compliance RC test. […]

The test system is the same in assay [4]. As to the kind of experiment: Leukocytes and protein leakage in airways (BALF), Example 1a. The conditions noted are these: day 28-31, OVA aerosol. The protocol:
as §1, §2, §3
An assessment of total leukocytes content in airways was carried out by performing bronchoalveolar lavage fluid (BALF) as previously described (Russo et al Am J Respir Cell Mol Biol (2009), v. 40, p. 410-21; Campa C C et al., Nat Commun (2018), v. 9, p. 5232). Briefly, an incision was made in the trachea where a 1.7 mm outside diameter polyethylene catheter was inserted. Then, the airways were washed 2 times with 1 mL of phosphate buffer saline (PBS). The samples were centrifuged at 300×g for 10 minutes at 4° C., the pellet was collected, resuspended in 100 μL of 3% BSA in PBS and a sample from this solution was used to assess the total leukocytes in the airways. The remaining was centrifuged at 300×g for 10 minutes at 4° C. on a histology glass slide to assess differential counting of macrophages, lymphocytes, eosinophils and neutrophils using an optical microscopy. Total protein was quantified in the BALF supernatant using a Bio-Rad protein assay Dye Reagent (Bio-Rad, USA) to measure possible protein leakage as previously described (Campa C C et al., Nat Commun (2018), v. 9, p. 5232).

Assay [5] has the same test system. As to the kind of experiment: Histological analysis of lung, pulmonary inflammation score, Example 1d. The conditions noted are these: ladarixin 10 mg/Kg oral, dexamethasone 5 mg/Kg s.c.; six grade scale 0-5; FIG. 4D, FIG. 3.
Protocol: In details, BALB/c mice received systemic immunization by subcutaneous injection of 20 μg of chicken egg ovalbumin (OVA grade V, >98% pure; Sigma, St Louis, Mo.) in saline, emulsified in 75 μL CFA (Sigma-Aldrich) at day 0. […]
Semiquantitative histopathology analyses were performed as described (Campa C C et al., Nat Commun (2018), v. 9, p. 5232). Briefly, ten random images per lung were acquired at 200× and pulmonary inflammation score was recorded according to a six grade scale where “0” corresponded to less than 1% of lung tissue area inflamed, “1” where up to 9% of lung area was affected by inflammation, “2” when 10% to 29% of lung tissue area was affected, “3” if 30% to 49% of lung tissue area was affected, “4” if 50% to 69% of lung tissue area was affected and “5” if more than 70% of the lung tissue area was affected by inflammation.
After BALF, left lung was removed and fixed in formalin 4% in PBS (pH 7.4), as previously described. […] Photomicrographs were obtained at 400× magnification and were analyzed using the software Image Pro Plus (Image-Pro Plus 4.1, Media Cybernetics, USA) under light microscopy. […]

Consider `C[C@@H](C(=O)NS(C)(=O)=O)c1ccc(OS(=O)(=O)C(F)(F)F)cc1` [ladarixin], for which the “TNF-α level in lung parenchyma” value in assay [1] (FIG. 2A) is “significantly decreased”. Moreover, the “IL-17A level in lung parenchyma” value in assay [1] (FIG. 2B) is on record as “significantly decreased”. The “neutrophil accumulation in lung parenchyma (MPO activity)” value in assay [2] is listed as “able to prevent the neutrophil accumulation”. The “airway hyperreactivity evoked by methacholine (ΔRI)” value in assay [3] was “able to reduce airway hyperreactivity”. Also, the “total leukocyte influx into alveolar space (BALF)” value in assay [4] (ladarixin 10 mg/Kg oral once a day, dexamethasone 5 mg/Kg s.c. once a day, FIG. 1A) is given as “reduces total leukocyte influx”. Moreover, in assay [4] (ladarixin 10 mg/Kg oral, dexamethasone 5 mg/Kg s.c., FIG. 1B), the “macrophages infiltrated into airways (BALF)” value was “marked reduction”. Besides, in assay [4] (ladarixin 10 mg/Kg oral, dexamethasone 5 mg/Kg s.c., FIG. 1C), the “neutrophils infiltrated into airways (BALF)” value was “marked reduction”. Besides, in assay [4] (ladarixin 10 mg/Kg oral, dexamethasone 5 mg/Kg s.c., FIG. 1D), the “eosinophil recruitment into the airways (BALF)” value is reported as “increased”. The “pulmonary inflammation score (lung histology)” value in assay [5] was “effective in reducing inflammation”.
